Test results taken from patent publication US12662676B2, “Aptamer nucleic acid molecule, and complex and application thereof” (EAST CHINA UNIVERSITY OF SCIENCE AND TECHNOLOGY, priority 2019, dated 2026).

Assays:
[1] = Fluorescence activation of III-3 fluorophore by Pepper aptamers and mutants; format: biochemical; settings: for Activation folds: 1 μM III-3 with 5 μM RNA
Procedure: Preparation of Pepper or Pepper mutant aptamer according to the commonly used experimental method (1). 5 μM aptamer and 1 μM fluorophore were incubated in the detection buffer (40 mM HEPES, pH 7.4, 125 mM KCl, 5 mM MgCl2, 5% DMSO). The maximal excitation and emission peaks of the aptamer-fluorophore complexes were determined using a Synergy Neo2 multifunctional microplate reader. The fluorescence intensities of the aptamer-fluorophore complexes at the maximal excitation and emission peaks were determined using a Synergy Neo2 multifunctional microplate reader. The control sample (1 μM fluorophore without aptamer) was also measured under the same conditions. Then the ratios of fluorescence intensity were calculated. For example, the fluorescence maximal excitation and emission peaks of the complex of 5 μM F30-Pepper-2 and 1 μM III-3 fluorophore are 485 nm and 530 nm, respectively. The fluorescence intensity of the complex at 485±10 nm excitation and 530 nm±10 nm emission was 36,000, the fluorescence intensity of the control sample (1 μM III-3 fluorophore only) under the same detection conditions was 10. Thus, the activation ratio of F30-Pepper-2 aptamer on III-3 fluorophore was 3,600-fold.
In order to detect the fluorescence activation of III-3 fluorophore by different Pepper mutant, the Pepper-1 sequence in F30-Pepper-1 was mutated according to Table 1. […] 1 μM III-3 was incubated with […] RNA and their fluorescence activation folds were determined according to the commonly used experimental method (5). […] In summary, many Pepper mutants containing single and multiple mutants still retain the ability to activate the fluorescence of III-3 fluorophore.
In order to detect the activation of III-3 by modified Pepper, base-modified Pepper-3 was synthesized (SEQ ID NO: 6, the underlined nucleotides in […] GGCC contain deoxyribonucleotide bases) and Pepper-4 (SEQ ID NO: 7, the underlined nucleotides in […] GGGCC contain 2′-F modification) (synthesized by Shanghai GenePharma Co., Ltd), which contain deoxyribonucleotides replacement (shaded bases in FIG. 5A) or 2′-F modification (shaded bases in FIG. 5B) in the stem-loop region of Pepper. Detection of the fluorescence activation of III-3 fluorophore by these modified Peppers was carried out according to the commonly used experimental method (5).

[2] = RNA extraction and purification with Mal-III-3 beads, in-gel fluorescence; settings: gel incubated with 5 μM III-3 for 30 min
Procedure: In order to use Pepper for RNA extraction and purification, the pCDNA3.1 hygro(+)-TagBFP-4Pepper-7 and pCDNA3.1 hygro(+)-mCherry-4Pepper-7 plasmids in Example 12 were transfected into COS-7 cells, respectively. 24 hours after transfection, the cells were collected and the total RNA of the cells was extracted using the Easyp Super Total RNA Extraction Kit (Promega). The extracted total RNA was dissolved in buffer containing 40 mM HEPES, pH 7.4, 125 mM KCl, 5 mM MgCl2. The RNA was incubated at 70° C. for 10 min and placed at room temperature for more than 30 min.
500 μL activated Thiol Sepharose 4B (GE Healthcare) was washed twice with 500 μL PBS, and then was incubated with PBS containing 10 mM TCEP (Sigma) for 1 h at room temperature. After washing twice with 500 μL PBS, maleamide conjugated III-3 fluorophore (Mal-III-3) was added to react for 30 min at room temperature, and was washed three times with 500 μL PBS. The treated total RNA was incubated with the treated beads at room temperature. After 30 minutes, the mixture was centrifuged at 4000 rpm for 2 minutes, and the supernatant was discarded. […]
The recovered RNA was validated by electrophoresis. The gel was incubated with buffer containing 5 μM III-3 in 40 mM HEPES, pH 7.4, 125 mM KCl, and 5 mM MgCl2 for 30 min, and the fluorescence of 4Pepper-III-3 in the gel was detected.

[3] = Thermostability of Pepper (fluorescence after 5 minutes at different temperatures); format: physicochemical; settings: 1 μM aptamer with 10 μM fluorophore (III-3 for F30-Pepper-1, DFHBI-1T for F30-Broccoli), 5 minutes at each temperature
Procedure: In order to test the thermostability of Pepper, 10 μM III-3 was incubated with 1 μM F30-Pepper-1, and then was placed at different temperatures for 5 minutes before the fluorescence was determined. 10 μM DFHBI-1T was incubated with 1 μM F30-Broccoli to be as the control.

[4] = Activation of III-3 by Pepper mutants with single mutation

## G13C: F30-Pepper-1 mutant aptamer (NCCAAUCGUGGCCUGUCGNNNACUGGCGCCGN; RNA, backbone, methylation of C and the base at N not given here; Pepper aptamer mutant embedded in F30 scaffold) [Compound G13C]
[1]; [4]
  Activation folds: 1758 folds

## G18C: F30-Pepper-1 mutant aptamer (NCCAAUCGUGGCGUGUCCNNNACUGGCGCCGN; RNA, backbone, methylation of C and the base at N not given here; Pepper aptamer mutant embedded in F30 scaffold) [Compound G18C]
[1]; [4]
  Activation folds: 1028 folds

## A5C: F30-Pepper-1 mutant aptamer (NCCACUCGUGGCGUGUCGNNNACUGGCGCCGN; Pepper mutant embedded in F30 scaffold, chemistry not given here, further chemistry not given here) [Compound A5C]
[1]; [4]
  Activation folds: 2628 folds

## Pepper-4: base-modified Pepper, SEQ ID NO: 7, 2′-F modification in the stem-loop region (GGCCCCCCAAUCGUGGCGUGUCGGCCUGCUUCGGCAGGCACUGGCGCCGGGGGCC; 2'-fluoro at some stem-loop positions, underlined positions not recoverable, further chemistry not given here)
[1]; deoxyribonucleotide or 2′-F modification in stem-loop region
  fluorescence activation of III-3 by base-modified Pepper: significantly activate the fluorescence of III-3 fluorophore

## C3A: F30-Pepper-1 mutant aptamer (NCAAAUCGUGGCGUGUCGNNNACUGGCGCCGN; RNA, backbone, methylation of C and the base at N not given here; Pepper aptamer mutant embedded in F30 scaffold) [Compound C3A]
[1]; [4]
  Activation folds: 2484 folds

## C30U: F30-Pepper-1 mutant aptamer (NCCAAUCGUGGCGUGUCGNNNACUGGCGCUGN; RNA, backbone, methylation of C and the base at N not given here; Pepper aptamer mutant embedded in F30 scaffold) [Compound C30U]
[1]; [4]
  Activation folds: 2587 folds

## C7A: F30-Pepper-1 mutant aptamer (NCCAAUAGUGGCGUGUCGNNNACUGGCGCCGN; RNA, backbone, methylation of C and the base at N not given here; Pepper aptamer mutant embedded in F30 scaffold) [Compound C7A]
[1]; [4]
  Activation folds: 1044 folds

## A4C: F30-Pepper-1 mutant aptamer (NCCCAUCGUGGCGUGUCGNNNACUGGCGCCGN; Pepper mutant embedded in F30 scaffold, chemistry not given here, further chemistry not given here) [Compound A4C]
[1]; [4]
  Activation folds: 2772 folds

## C29G: F30-Pepper-1 mutant aptamer (NCCAAUCGUGGCGUGUCGNNNACUGGCGGCGN; Pepper mutant embedded in F30 scaffold, chemistry not given here, further chemistry not given here) [Compound C29G]
[1]; [4]
  Activation folds: 2145 folds

## U6A: F30-Pepper-1 mutant aptamer (NCCAAACGUGGCGUGUCGNNNACUGGCGCCGN; RNA, backbone and the base at N not given here; Pepper variant inserted in F30 scaffold RNA) [Compound U6A]
[1]; [4]
  Activation folds: 1872 folds

## C2G/G31C/G10A/C30U/U6G/C27U: F30-Pepper-1 mutant aptamer (NGCAAGCGUAGCGUGUCGNNNACUGGUGCUCN; RNA, backbone, methylation of C and the base at N not given here; Pepper aptamer mutant embedded in F30 scaffold)
[1]; Activation of III-3 by Pepper mutants with multiple mutations
  Activation folds: 758 folds

B1: TagBFP-4Pepper: TagBFP mRNA fused with 4Pepper-7, SEQ ID No: 27 (nucleic acid)
chain: AUGAGCGAGCUGAUUAAGGAGAACAUGCACAUGAAGCUGUACAUGGAGGGCACCGUGGACAACCAUCACUUCAAGUGCACAUCCGAGGGCGAAGGCAAGCCCUACGAGGGCACCCAGACCAUGAGAAUCAAGGUGGUCGAGGGCGGCCCUCUCCCCUUCGCCUUCGACAUCCUGGCUACUAGCUUCCUCUACGGCAGCAAGACCUUCAUCAACCACACCCAGGGCAUCCCCGACUUCUUCAAGCAGUCCUUCCCUGAGGGCUUCACAUGGGAGAGAGUCACCACAUACGAAGACGGGGGCGUGCUGACCGCUACCCAGGACACCAGCCUCCAGGACGGCUGCCUCAUCUACAACGUCAAGAUCAGAGGGGUGAACUUCACAUCCAACGGCCCUGUGAUGCAGAAGAAAACACUCGGCUGGGAGGCCUUCACCGAGACGCUGUACCCCGCUGACGGCGGCCUGGAAGGCAGAAACGACAUGGCCCUGAAGCUCGUGGGCGGGAGCCAUCUGAUCGCAAACAUCAAGACCACAUAUAGAUCCAAGAAACCCGCUAAGAACCUCAAGAUGCCUGGCGUCUACUAUGUGGACUACAGACUGGAAAGAAUCAAGGAGGCCAACAACGAGACCUACGUCGAGCAGCACGAGGUGGCAGUGGCCAGAUACUGCGACCUCCCUAGCAAACUGGGGCACAAGCUCAAUUAACACUCGCUAGAGCAUGGUUGGUACCGUAGUCAAGCUUCCCACGGAGGAUCCCCAAUCGUGGCGUGUCGGCCUCUCCCAAUCGUGGCGUGUCGGCCUCUCCCAAUCGUGGCGUGUCGGCCUCUCCCAAUCGUGGCGUGUCGGCCUCUCUUCGGAGAGGCACUGGCGCCGGAGAGGCACUGGCGCCGGAGAGGCACUGGCGCCGGAGAGGCACUGGCGCCGGGAUCCUCCGUGGG
[2]
  in-gel fluorescence of recovered RNA: bright Pepper-III-3 fluorescence signals

B2: F30-Broccoli: reported monomeric Broccoli aptamer in F30 scaffold, SEQ ID NO: 4, control (nucleic acid)
chain: UUGCCAUGUGUAUGUGGGUUCGCCCACAUACUCUGAUGAUCCAGACGGUCGGGUCCAGAUAUUCGUAUCUGUCGAGUAGAGUGUGGGCUGGAUCAUUCAUGGCAA
modifications: listed as RNA, further chemistry not given here
[3]
  Tm: 48 °C
